In patent US6831069B2, “Pyrrolo[2,3-d]pyrimidine nucleoside analogs” (priority 1999, dated 2004):
Structures can show the parent of a compound that is named as a salt.

What was measured:
[1] = tested on: Human Prostate cancer cells, HTB81; assay: VEGF secretion, VEGF Elisa Assay; type: cell-based; conditions: 72 hrs treatment
Protocol: The compounds 23a(5′-R) and 23a(5′-S) are potent in inhibition of secretion of Vascular Endothelial Growth Factor (VEGF) from Human Prostate cancer cells, HTB81. VEGF is recognized as angiogenesis marker since this molecule is crucial for migration and growth of endothelial cells and microvessel formation in vivo. […] The compounds were applied just after plating for 72 hrs. After that, the medium was collected and the level of VEGF was measured using VEGF Elisa Assay (R & D Systems) and expressed as pg of VEGF per ml of the medium.

[2] = tested on: Human Prostate cancer cells, HTB81; assay: IL-8 secretion, IL-8 Elisa Assay; type: cell-based; conditions: concentrations indicated in FIG. 12
Source text: The compound 23a(5′-R) and 23a(5′-S) indicate an inhibitory effect on secretion of Interleukin-8 (IL-8) from human prostate cancer cells, HTB81. IL-8 belongs to the class of chemo-attractant chemokines (type alpha), which are involved in inflammation processes due to attraction of neutrophils. Chemokines, in general, are known to be produced by various types of cancer. It is proven in several studies that inhibition of chemokine production by cancer cells is beneficial for the host. […] The medium collected from the culture was analyzed for IL-8 level using IL-8 Elisa Assay from R&D Systems.

activated human T cells = assay: Analysis of cytokine mRNA (RT-PCR, Southern blot) in PMA-ION activated human T cells; type: cell-based; conditions: experiment corresponding to FIG. 18; FIG. 26
B10.PL (H-2u) mice = assay: Murine EAE model of multiple sclerosis, prophylactic treatment; type: in vivo, mouse; conditions: 0.1 mg/kg IP daily for 10d before induction of disease
[3] = tested on: BALB/c and C57BL/6 lymph node CD4+ T cells; assay: Generation of murine Th1 cells, IL-4 and IFNγ ELISA after restimulation; type: cell-based, mouse; conditions: murine CD4+ cells induced with IL-2, IFN-γ, IL-12; BALB/c and C57BL/6; versus without compound
PHA stimulated T-cells = assay: Type 1 and Type 2 cytokines in PHA stimulated T-cells; type: cell-based, human; conditions: FIG. 24

## C[C@H](O)[C@H]1O[C@@H](n2cc(C#N)c3c(N)ncnc32)[C@H](O)[C@@H]1O [23a(5′-S), 4-Amino-5-cyano-7-(5(S)-C-methyl-β-D-ribofuranosyl)pyrrolo[2,3-d]pyrimidine]
[1]
  secretion of VEGF: inhibit secretion of VEGF in a dose-dependent manner
[2]
  secretion of IL-8: inhibit secretion of IL-8 in a dose-dependent manner

## Cl.N=C(N)c1cn([C@@H]2O[C@H](CO)[C@@H](O)[C@H]2O)c2nc[nH]c(=O)c12 [ICN 17739, 7-(β-D-ribofuranosyl)pyrrolo[2,3-d]-4-pyrimidone-5-carboxamidine Hydrochloride]
Activated human T cells
  anti-inflammatory and anti-proliferative responses (RNA expression): induction of anti-inflammatory and anti-proliferative responses

## C[C@@H](O)[C@H]1O[C@@H](n2cc(C#N)c3c(N)ncnc32)[C@H](O)[C@@H]1O [23a(5′-R), 4-Amino-5-cyano-7-(5(R)-C-methyl-β-D-ribofuranosyl)pyrrolo[2,3-d]pyrimidine]
[1]
  secretion of VEGF: inhibit secretion of VEGF in a dose-dependent manner
[2]
  secretion of IL-8: inhibit secretion of IL-8 in a dose-dependent manner

## N=C(N)c1cn([C@@H]2O[C@H](CO)[C@H](O)C2O)c2nc[nH]c(=O)c12 (stereo partly drawn) [ICN 17739, 7-(β-D-ribofuranosyl)pyrrolo[2,3-d]-4-pyrimidone-5-carboxamidine Hydrochloride]
B10.PL (H-2u) mice
  MBP-specific Th2 cytokine producing T-cells: induces MBP-specific Th2 cytokine producing T-cells
  onset of murine EAE: clearly delayed onset
[3]
  IFN-γ production of induced Th1 cells: significantly decreased
  IL-4 production of induced Th1 cells: significantly increased
PHA stimulated T-cells
  Type 1 cytokines: significant decrease
  production of Type 2 cytokines: significant increase
